# Experimental data: patent US11414387B2, “Oxoacridinyl acetic acid derivatives and methods of use” (Stingthera, Inc., priority 2017, dated 2022)
# Target: mSTING (Mus musculus, UniProt Q3TBT3)
# Test: Radiometric filtration binding competition assay, mSTING
# Conditions: not given
row,IC50 [µM],SMILES
1,< 20,COc1c(Cl)ccc2c(=O)c3ccc(NC4CCCC4)cc3n(CC(=O)O)c12 [Compound 293]
2,< 20,CS(=O)(=O)Nc1cccc(Nc2ccc3c(=O)c4ccc(Cl)c(Cl)c4n(CC(=O)O)c3c2)c1 [Compound 257]
3,< 20,CC(C)c1ccc2c(=O)c3ccc(Cl)c(-c4ccccc4)c3n(CC(=O)O)c2c1 [Compound 289]
4,< 20,CN(C)c1c(Cl)ccc2c(=O)c3ccc(C(C)(C)C)cc3n(CC(=O)O)c12 [Compound 324]
5,< 20,CCOc1c(Cl)ccc2c(=O)c3ccc(CC)cc3n(CC(=O)O)c12 [Compound 306]
6,< 20,CCOc1c(Cl)ccc2c(=O)c3ccc(C(C)C)cc3n(CC(=O)O)c12 [Compound 288]
7,< 20,C[C@@H](O)COc1c(Cl)ccc2c(=O)c3ccccc3n(CC(=O)O)c12 [Compound 323]

# Second part, the compound before the results:
row,SMILES,IC50 [µM]
1,COc1c(Cl)ccc2c(=O)c3ccc(Nc4ccc(F)cc4)cc3n(CC(=O)O)c12 [Compound 250],< 20
2,COc1c(Cl)ccc2c(=O)c3ccc(SC)cc3n(CC(=O)O)c12 [Compound 234],< 20
3,CC(C)Oc1c(Cl)ccc2c(=O)c3ccc(C(C)(C)C)cc3n(CC(=O)O)c12 [Compound 225],20 to 100
4,COc1c(Cl)ccc2c(=O)c3ccc(SC(C)C)cc3n(CC(=O)O)c12 [Compound 232],< 20
5,COc1c(Cl)ccc2c(=O)c3ccccc3n(CC(=O)O)c12 [Compound 178],> 300

# Target: hSTING-WT (Homo sapiens (Human), UniProt Q86WV6, H232R)
# Test: Radiometric filtration binding competition assay, hSTING-WT
# Conditions: not given
# hSTING-WT, sequence (Q86WV6 140-379 H232R): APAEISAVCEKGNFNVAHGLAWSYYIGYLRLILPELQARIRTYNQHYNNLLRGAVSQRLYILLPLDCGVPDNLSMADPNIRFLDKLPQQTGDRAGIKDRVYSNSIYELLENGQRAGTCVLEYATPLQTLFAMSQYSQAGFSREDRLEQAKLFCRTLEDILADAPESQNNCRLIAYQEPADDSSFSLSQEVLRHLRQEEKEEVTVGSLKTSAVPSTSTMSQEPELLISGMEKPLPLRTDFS
row,IC50 [µM],SMILES
1,< 20,COc1c(Cl)ccc2c(=O)c3ccc(NC4CCCC4)cc3n(CC(=O)O)c12 [Compound 293]
2,20 to 100,CS(=O)(=O)Nc1cccc(Nc2ccc3c(=O)c4ccc(Cl)c(Cl)c4n(CC(=O)O)c3c2)c1 [Compound 257]
3,< 20,CC(C)c1ccc2c(=O)c3ccc(Cl)c(-c4ccccc4)c3n(CC(=O)O)c2c1 [Compound 289]
4,< 20,CN(C)c1c(Cl)ccc2c(=O)c3ccc(C(C)(C)C)cc3n(CC(=O)O)c12 [Compound 324]
5,< 20,CCOc1c(Cl)ccc2c(=O)c3ccc(CC)cc3n(CC(=O)O)c12 [Compound 306]
6,< 20,CCOc1c(Cl)ccc2c(=O)c3ccc(C(C)C)cc3n(CC(=O)O)c12 [Compound 288]
7,< 20,C[C@@H](O)COc1c(Cl)ccc2c(=O)c3ccccc3n(CC(=O)O)c12 [Compound 323]

# Continued, compound first:
row,SMILES,IC50 [µM]
1,COc1c(Cl)ccc2c(=O)c3ccc(Nc4ccc(F)cc4)cc3n(CC(=O)O)c12 [Compound 250],< 20
2,COc1c(Cl)ccc2c(=O)c3ccc(SC)cc3n(CC(=O)O)c12 [Compound 234],20 to 100
3,CC(C)Oc1c(Cl)ccc2c(=O)c3ccc(C(C)(C)C)cc3n(CC(=O)O)c12 [Compound 225],< 20
4,COc1c(Cl)ccc2c(=O)c3ccc(SC(C)C)cc3n(CC(=O)O)c12 [Compound 232],100 to 300
5,O=C(O)Cn1c2cc(NCCN3CCc4ccccc43)ccc2c(=O)c2ccc(Cl)c(Cl)c21 [Compound 150],100 to 300
6,CC(C)c1ccc2c(=O)c3ccc(C#N)c(Cl)c3n(CC(=O)O)c2c1 [Compound 145],100 to 300
7,Cc1ccc(-c2ccc3c(=O)c4ccc(Cl)c(Cl)c4n(CC(=O)O)c3c2)cc1F [Compound 163],20 to 100
8,CC1(C)CCCC(c2ccc3c(=O)c4ccc(Cl)c(Cl)c4n(CC(=O)O)c3c2)C1 (centres unmarked) [Compound 158],< 20
9,COc1c(Cl)ccc2c(=O)c3ccccc3n(CC(=O)O)c12 [Compound 178],> 300
10,CC(C)c1ccc2c(=O)c3ccc(Br)c(Cl)c3n(CC(=O)O)c2c1 [Compound 170],20 to 100
11,O=C(O)Cn1c2cc(-c3cccc(Cl)c3)ccc2c(=O)c2ccc(Cl)c(Cl)c21 [Compound 155],100 to 300

# Target: mSTING-R232 (Mus musculus, UniProt Q3TBT3)
# Test: STING differential scanning fluorimetry (DSF) assay, mouse STING
# Conditions: net shift in melting temperature
row,MOUSE DSF_6xHIS-SUMO Tm Shift (° C.),SMILES
1,D (“D” > 15° C.),COc1c(Cl)ccc2c(=O)c3ccc(NC4CCCC4)cc3n(CC(=O)O)c12 [Compound 293]
2,D (“D” > 15° C.),CS(=O)(=O)Nc1cccc(Nc2ccc3c(=O)c4ccc(Cl)c(Cl)c4n(CC(=O)O)c3c2)c1 [Compound 257]
3,C (“C” = 5-15° C.),CC(C)c1ccc2c(=O)c3ccc(Cl)c(-c4ccccc4)c3n(CC(=O)O)c2c1 [Compound 289]
4,D (“D” > 15° C.),CN(C)c1c(Cl)ccc2c(=O)c3ccc(C(C)(C)C)cc3n(CC(=O)O)c12 [Compound 324]
5,D (“D” > 15° C.),CCOc1c(Cl)ccc2c(=O)c3ccc(CC)cc3n(CC(=O)O)c12 [Compound 306]
6,D (“D” > 15° C.),CCOc1c(Cl)ccc2c(=O)c3ccc(C(C)C)cc3n(CC(=O)O)c12 [Compound 288]
7,D (“D” > 15° C.),C[C@@H](O)COc1c(Cl)ccc2c(=O)c3ccccc3n(CC(=O)O)c12 [Compound 323]

# Further lines, the compound ahead of its results:
row,SMILES,MOUSE DSF_6xHIS-SUMO Tm Shift (° C.)
1,COc1c(Cl)ccc2c(=O)c3ccc(Nc4ccc(F)cc4)cc3n(CC(=O)O)c12 [Compound 250],D (“D” > 15° C.)
2,COc1c(Cl)ccc2c(=O)c3ccc(SC)cc3n(CC(=O)O)c12 [Compound 234],D (“D” > 15° C.)
3,CC(C)Oc1c(Cl)ccc2c(=O)c3ccc(C(C)(C)C)cc3n(CC(=O)O)c12 [Compound 225],D (“D” > 15° C.)
4,COc1c(Cl)ccc2c(=O)c3ccc(SC(C)C)cc3n(CC(=O)O)c12 [Compound 232],D (“D” > 15° C.)
5,O=C(O)Cn1c2cc(NCCN3CCc4ccccc43)ccc2c(=O)c2ccc(Cl)c(Cl)c21 [Compound 150],C (“C” = 5-15° C.)
6,CC(C)c1ccc2c(=O)c3ccc(C#N)c(Cl)c3n(CC(=O)O)c2c1 [Compound 145],A (“A” < 0° C.)
7,Cc1ccc(-c2ccc3c(=O)c4ccc(Cl)c(Cl)c4n(CC(=O)O)c3c2)cc1F [Compound 163],D (“D” > 15° C.)
8,CC1(C)CCCC(c2ccc3c(=O)c4ccc(Cl)c(Cl)c4n(CC(=O)O)c3c2)C1 (centres unmarked) [Compound 158],D (“D” > 15° C.)
9,COc1c(Cl)ccc2c(=O)c3ccccc3n(CC(=O)O)c12 [Compound 178],C (“C” = 5-15° C.)
10,CC(C)c1ccc2c(=O)c3ccc(Br)c(Cl)c3n(CC(=O)O)c2c1 [Compound 170],C (“C” = 5-15° C.)
11,O=C(O)Cn1c2cc(-c3cccc(Cl)c3)ccc2c(=O)c2ccc(Cl)c(Cl)c21 [Compound 155],D (“D” > 15° C.)

# Target: hSTING-R232 (Homo sapiens (Human), UniProt Q86WV6, H232R)
# Test: STING differential scanning fluorimetry (DSF) assay, WT human STING
# Conditions: WT (R232) human STING aa140-379, net shift in melting temperature
# hSTING-R232, sequence (Q86WV6 140-379 H232R): as above
row,WT_DSF_hSWAT Tm Shift (° C.),SMILES
1,D (“D” > 7° C.),COc1c(Cl)ccc2c(=O)c3ccc(NC4CCCC4)cc3n(CC(=O)O)c12 [Compound 293]
2,D (“D” > 7° C.),CS(=O)(=O)Nc1cccc(Nc2ccc3c(=O)c4ccc(Cl)c(Cl)c4n(CC(=O)O)c3c2)c1 [Compound 257]
3,D (“D” > 7° C.),CC(C)c1ccc2c(=O)c3ccc(Cl)c(-c4ccccc4)c3n(CC(=O)O)c2c1 [Compound 289]
4,D (“D” > 7° C.),CN(C)c1c(Cl)ccc2c(=O)c3ccc(C(C)(C)C)cc3n(CC(=O)O)c12 [Compound 324]
5,D (“D” > 7° C.),CCOc1c(Cl)ccc2c(=O)c3ccc(CC)cc3n(CC(=O)O)c12 [Compound 306]
6,D (“D” > 7° C.),CCOc1c(Cl)ccc2c(=O)c3ccc(C(C)C)cc3n(CC(=O)O)c12 [Compound 288]
7,D (“D” > 7° C.),C[C@@H](O)COc1c(Cl)ccc2c(=O)c3ccccc3n(CC(=O)O)c12 [Compound 323]

# More lines, now with the values behind:
row,SMILES,WT_DSF_hSWAT Tm Shift (° C.)
1,COc1c(Cl)ccc2c(=O)c3ccc(Nc4ccc(F)cc4)cc3n(CC(=O)O)c12 [Compound 250],D (“D” > 7° C.)
2,COc1c(Cl)ccc2c(=O)c3ccc(SC)cc3n(CC(=O)O)c12 [Compound 234],D (“D” > 7° C.)
3,CC(C)Oc1c(Cl)ccc2c(=O)c3ccc(C(C)(C)C)cc3n(CC(=O)O)c12 [Compound 225],D (“D” > 7° C.)
4,COc1c(Cl)ccc2c(=O)c3ccc(SC(C)C)cc3n(CC(=O)O)c12 [Compound 232],D (“D” > 7° C.)
5,O=C(O)Cn1c2cc(NCCN3CCc4ccccc43)ccc2c(=O)c2ccc(Cl)c(Cl)c21 [Compound 150],"C (“C” = 2-7° C,)"
6,CC(C)c1ccc2c(=O)c3ccc(C#N)c(Cl)c3n(CC(=O)O)c2c1 [Compound 145],A (“A” < 0° C.)
7,Cc1ccc(-c2ccc3c(=O)c4ccc(Cl)c(Cl)c4n(CC(=O)O)c3c2)cc1F [Compound 163],"C (“C” = 2-7° C,)"
8,CC1(C)CCCC(c2ccc3c(=O)c4ccc(Cl)c(Cl)c4n(CC(=O)O)c3c2)C1 (centres unmarked) [Compound 158],"C (“C” = 2-7° C,)"
9,COc1c(Cl)ccc2c(=O)c3ccccc3n(CC(=O)O)c12 [Compound 178],"C (“C” = 2-7° C,)"
10,CC(C)c1ccc2c(=O)c3ccc(Br)c(Cl)c3n(CC(=O)O)c2c1 [Compound 170],B (“B” = 0-2° C.)
11,O=C(O)Cn1c2cc(-c3cccc(Cl)c3)ccc2c(=O)c2ccc(Cl)c(Cl)c21 [Compound 155],"C (“C” = 2-7° C,)"

# Target: STING protein (Homo sapiens (Human), UniProt Q86WV6, H232R)
# Test: Cell based reporter assay of IRF activation (IRF-luciferase), THP1-dual-KI R232
# Conditions: read-out: THP1-dual-KI R232_IRF(Luciferase)_Activity Maximum measured (%)
# Source text: Briefly, THP-1 monocytes were transfected and selected for stable integration of 2 reporter constructs. Clones incorporating stably integrated vectors were further selected by antibiotic resistance to blastocidin and zeocin. The reporter constructs included: (1) firefly luciferase reporter gene under the control of an ISG54 promoter fused to five interferon (IFN)-stimulated response elements to measure IRF transcription factor binding activity and (2) secreted embryonic alkaline phosphatase reporter gene under transcription control of an IFN-beta minimal promoter fused to 5 copies of the NFkB consensus transcriptional response element and 3 copies of the c-Rel binding site.
# The resulting THP-1 cell line was further modified to incorporate 3 amino acid point mutations (H71R A230G Q293R). This modification of the native TMEM173 gene in THP-1 cells (HAQ) was designed to produce a cell reporter that expressed the most common allelic variant in the human population (THP-1 R232, available from InvivoGen). Alternatively, the TMEM173 gene was knocked out to provide a congenic control to counter-screen for compound activation that was independent of the STING protein (THP-1 STING KO).
# Once cell lines were established, reporter assay protocols were developed and optimized to screen small molecule compounds for agonist activity. Assay optimization for efficacy and Z′ value included titration of the following parameters:
# • 1. Cell pre-activation with PMA • 2. Cell seeding density • 3. DMSO tolerance • 4. Media selection • 5. FBS concentration • 6. Incubation time • 7. Co-Assessment of cell viability by CTG assay • 8. Appropriate HPE and ZPE controls • 9. Dose Response Titration Final Assay SOP Conditions • 1. No pre-activation with PMA • 2. 5×10^4 cells/well in 96 well plate format • 3. <0.5% DMSO • 4. […] 10% FBS • 6. 14-18 hr incubation • 7. Cell Titer Glo reagent (Promega) following supernatant removal • 8.
# STING protein, sequence (Q86WV6 whole entry H232R): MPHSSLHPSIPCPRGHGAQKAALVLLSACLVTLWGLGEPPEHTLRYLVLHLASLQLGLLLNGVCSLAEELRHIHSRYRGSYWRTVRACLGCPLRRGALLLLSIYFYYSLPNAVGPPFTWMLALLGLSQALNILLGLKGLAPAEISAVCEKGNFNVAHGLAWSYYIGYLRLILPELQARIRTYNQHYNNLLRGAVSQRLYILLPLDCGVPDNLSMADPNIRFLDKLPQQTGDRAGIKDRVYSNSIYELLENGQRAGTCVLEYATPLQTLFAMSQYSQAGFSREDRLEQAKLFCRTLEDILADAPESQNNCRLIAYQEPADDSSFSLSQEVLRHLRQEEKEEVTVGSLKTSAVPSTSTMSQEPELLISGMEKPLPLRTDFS
row,Emax [%],SMILES
1,> 50,COc1c(Cl)ccc2c(=O)c3ccc(NC4CCCC4)cc3n(CC(=O)O)c12 [Compound 293]
2,< 5,CS(=O)(=O)Nc1cccc(Nc2ccc3c(=O)c4ccc(Cl)c(Cl)c4n(CC(=O)O)c3c2)c1 [Compound 257]
3,> 50,CC(C)c1ccc2c(=O)c3ccc(Cl)c(-c4ccccc4)c3n(CC(=O)O)c2c1 [Compound 289]
4,> 50,CN(C)c1c(Cl)ccc2c(=O)c3ccc(C(C)(C)C)cc3n(CC(=O)O)c12 [Compound 324]
5,> 50,CCOc1c(Cl)ccc2c(=O)c3ccc(CC)cc3n(CC(=O)O)c12 [Compound 306]
6,> 50,CCOc1c(Cl)ccc2c(=O)c3ccc(C(C)C)cc3n(CC(=O)O)c12 [Compound 288]
7,< 5,C[C@@H](O)COc1c(Cl)ccc2c(=O)c3ccccc3n(CC(=O)O)c12 [Compound 323]

# Second part, the compound before the results:
row,SMILES,Emax [%]
1,COc1c(Cl)ccc2c(=O)c3ccc(Nc4ccc(F)cc4)cc3n(CC(=O)O)c12 [Compound 250],> 50
2,COc1c(Cl)ccc2c(=O)c3ccc(SC)cc3n(CC(=O)O)c12 [Compound 234],> 50
3,CC(C)Oc1c(Cl)ccc2c(=O)c3ccc(C(C)(C)C)cc3n(CC(=O)O)c12 [Compound 225],> 50
4,COc1c(Cl)ccc2c(=O)c3ccc(SC(C)C)cc3n(CC(=O)O)c12 [Compound 232],> 50
5,O=C(O)Cn1c2cc(NCCN3CCc4ccccc43)ccc2c(=O)c2ccc(Cl)c(Cl)c21 [Compound 150],5 to 25
6,CC(C)c1ccc2c(=O)c3ccc(C#N)c(Cl)c3n(CC(=O)O)c2c1 [Compound 145],< 5
7,Cc1ccc(-c2ccc3c(=O)c4ccc(Cl)c(Cl)c4n(CC(=O)O)c3c2)cc1F [Compound 163],5 to 25
8,CC1(C)CCCC(c2ccc3c(=O)c4ccc(Cl)c(Cl)c4n(CC(=O)O)c3c2)C1 (centres unmarked) [Compound 158],< 5
9,CC(C)c1ccc2c(=O)c3ccc(Br)c(Cl)c3n(CC(=O)O)c2c1 [Compound 170],25 to 50
10,O=C(O)Cn1c2cc(-c3cccc(Cl)c3)ccc2c(=O)c2ccc(Cl)c(Cl)c21 [Compound 155],< 5
